From ChEMBL document CHEMBL3301546, “MMV Malaria Box yeast growth screening”

Tests used:
Assay type in all cases: functional
Saccharomyces cerevisiae [1] = assay: MMV: Growth assays were conducted using the prototrophic S. cerevisiae strain JHY222. Each MMV compound (0.1 mM) was tested in minimal media containing ethanol and glycerol as carbon sources (Yeast Nitrogen Base, Ethanol, Glycerol; YNBEG). The growth rate in the presence of each MMV compound was calculated as follows: (i) the first 10 OD readings were averaged and subtracted from all OD readings of the corresponding curve to set the baseline of the growth curve to zero, and (ii) the area under the curve (AUC) was then calculated as the sum of all OD readings. […] A relative growth value was calculated as follows: AUC(DRUG) - AUC(DMSO)/AUC(DMSO); where AUC(DMSO) represents growth measured in a DMSO control well that was on the same microtiter plate of the drug-treated culture.
Saccharomyces cerevisiae [2] = assay: (§1) MMV: Growth assays were conducted using the prototrophic S. cerevisiae strain JHY222. Each MMV compound (0.1 mM) was tested in rich media containing dextrose as a carbon source (Yeast Extract, Peptone, Dextrose; YPD). The growth rate in the presence of each MMV compound was calculated as follows: (i) the first 10 OD readings were averaged and subtracted from all OD readings of the corresponding curve to set the baseline of the growth curve to zero, and (ii) the area under the curve (AUC) was then calculated as the sum of all OD readings. […] A relative growth value was calculated as follows: AUC(DRUG) - AUC(DMSO)/AUC(DMSO); where AUC(DMSO) represents growth measured in a DMSO control well that was on the same microtiter plate of the drug-treated culture.
Saccharomyces cerevisiae [3] = assay: as §1, with “minimal” for “rich”, “Nitrogen Base,” for “Extract, Peptone,”, “YNBD).” for “YPD).”

Compound | Relative Growth (Saccharomyces cerevisiae [1]) | Relative Growth (Saccharomyces cerevisiae [2]) | Relative Growth (Saccharomyces cerevisiae [3])
COc1cccc(Cn2c(Oc3ccccc3)nc3c2c(=O)n(C)c(=O)n3C)c1 | -0.4904 | -0.0536 | -0.1115
CCn1nc(-c2ccc(C(=O)OC)cc2)nc2c(=O)n(C)c(=O)nc1-2 | 0.1078 | 0.0103 | 0.0968
CCOc1ccccc1CN1CCc2nc3cc(C(C)(C)C)nn3c(O)c2C1 | -0.4424 | -0.6117 | -0.2912
Cc1cc(NC(=O)c2cccc(C(F)(F)F)c2)n(-c2nc(-c3ccc4c(c3)OCO4)cs2)n1 | -0.0763 | -0.007 | -0.0865
CN1CCN(c2ncnc3c2[nH]c2ccc(Cl)cc23)CC1 | 0.0216 | 0.0011 | 0.0494
CC1(c2ccccc2)Nc2ccccc2-c2nc3ccccc3n21 (stereo unspecified) | -0.5975 | -0.9988 | -0.2999
COc1cccc(C2(C)Nc3ccccc3-c3nc4ccccc4n32)c1 (stereo unspecified) | -0.0556 | 0.098 | -0.0211
CC(C)CNC(=O)c1c(N)n(CCc2ccccc2F)c2nc3ccccc3nc12 | -0.2111 | 0.0072 | 0.1192
CC(C)(C)CC(C)(C)NCC(O)COc1ccc(Cl)cc1Cl (stereo unspecified) | -0.1363 | -0.1373 | 0.0104
Cc1cccc(-n2ncc3c(O)nc(-n4nc(C)cc4NC(=O)c4cc5ccccc5o4)nc32)c1 | -0.0822 | -0.0284 | -0.2202
O=C(Nc1ccc(Br)cc1)Nc1cccc(Cl)c1 | -0.1301 | -1.0018 | -0.1739
COc1cccc(O)c1CN1CCC2(CCCN(Cc3ccc(F)cc3)C2)C1 (stereo unspecified) | 0.0078 | 0.0333 | 0.0312
COc1cccc(Nc2nc(NCCO)c3ccccc3n2)c1.Cl | -0.0151 | 0.0163 | -0.0288
O=C(NC1CCN(Cc2ccccc2)CC1)c1cc(-c2ccncc2)nc2ccc(Cl)cc12 | -0.2602 | -0.0217 | 0.1716
COc1ccc2nc(C)cc(Nc3cccc(O)c3)c2c1.Cl | 0.0008 | -0.0539 | 0.0539
COc1cc2cc(C(=O)Nc3ccccc3)c(N)nc2cc1OC | 0.0392 | -1.0109 | -0.0986
CN(C)CCCNCc1ccc(-c2ccc(F)c(Cl)c2)o1.Cl | 0.0645 | -0.0396 | 0.0576
COc1ccc2nc(N)nc(C)c2c1 | -0.0106 | -0.0479 | 0.0302
O=C(NC(c1ccccc1)c1ccc2cccnc2c1O)c1ccccc1 (stereo unspecified) | -0.2626 | 0.0169 | -0.0745

Compound | Relative Growth (Saccharomyces cerevisiae [1]) | Relative Growth (Saccharomyces cerevisiae [2]) | Relative Growth (Saccharomyces cerevisiae [3])
CCC(=O)Nc1nnc(Cc2ccc(OC)c(OC)c2)s1 | -0.1225 | -0.0143 | -0.019
CC(=O)Nc1nnc(SCc2c(C)cc(C(C)(C)C)cc2C)s1 | 0.0163 | 0.0168 | 0.0621
O=C(Nc1ccc(CN2CCOCC2)cc1)c1ccc(-c2cc(Cl)ccc2Cl)o1 | -0.173 | 0.0021 | 0.0214
Cc1ccc(CSCc2ccc(C(=O)NC3CC3)o2)cc1 | -0.1982 | 0.0613 | -0.0643
Oc1ccc(Cl)cc1CNc1nc2ccccc2[nH]1 | -0.0134 | -0.0141 | -0.0661
COc1cccc(C(=O)Nc2ccc(-c3nc4ccccc4[nH]3)cc2)c1 | 0.0109 | -0.0256 | 0.0184
COCCn1c(C)nc2ccccc2c1=O | -0.2443 | -0.0038 | 0.0485
O=C(Nc1cccc(-c2nc3ccccc3[nH]2)c1)c1cccc(NC(=O)c2ccco2)c1 | -0.4658 | -0.1741 | -0.0641
O=C(NC1CCN(Cc2ccccc2)CC1)c1cc(-c2cccnc2)nc2ccc(Cl)cc12 | 0.017 | -0.0203 | 0.0617
COc1nc(Nc2ccc(C(C)C)cc2)nc(OC)n1 | 0.0254 | -0.007 | 0.0529
CCN(CC)CCNc1ncnc2c1[nH]c1ccc(Br)cc12 | 0.0355 | -0.0425 | 0.101
CCOc1cccc(C(=O)Nc2ccc(-c3nc4ccccc4[nH]3)cc2)c1 | 0.032 | -0.0469 | 0.0858
Cc1cc(NC(=O)c2ccc(-c3ccccc3)cc2)no1 | 0.0052 | -0.0826 | 0.0468
O=C(Nc1ccc(N2CCN(Cc3ccccc3)CC2)cc1)c1cccs1.O=C(O)C(F)(F)F | -0.0052 | -0.129 | -0.0637
O=C(Nc1ccc(N2CCCCC2)c(Cl)c1)c1ccc(Br)o1 | -0.1511 | -0.0318 | -0.1788
CCOc1cc2c(cc1OCC)C(c1cc(C)c(O)c(C)c1)NCC2.Cl (stereo unspecified) | -0.7495 | -0.1843 | -0.1636
O=C1CC(O)(C(F)(F)C(F)(F)F)Oc2ccccc21 (stereo unspecified) | -0.6809 | -0.0644 | -0.042
O=C(Nc1cccc(C(F)(F)F)c1)c1cc(Cl)ccc1O | -1.011 | -0.651 | -1.0097
CC1CC(C)CN(C(=O)c2ccc(Cl)cc2Cl)C1 (stereo unspecified) | -0.0083 | 0.0159 | -0.0098

Compound | Relative Growth (Saccharomyces cerevisiae [1]) | Relative Growth (Saccharomyces cerevisiae [2]) | Relative Growth (Saccharomyces cerevisiae [3])
OC(CNC1CCCC1)Cn1c2ccccc2c2ccccc21 (stereo unspecified) | -0.0741 | -0.0524 | -0.142
Cc1ccc(NC(=O)Nc2cccc(Cl)c2)cc1F | 0.0189 | -0.0033 | 0.0155
CCOc1ccc(/C=C/c2nc(=O)c3ccccc3o2)cc1 | 0.0498 | 0.0045 | 0.0067
O=C(Nc1ccccc1O)c1ccc(-c2ccc(Cl)cc2Cl)o1 | -0.098 | 0.0802 | 0.0136
CCOc1ccc(-c2nc(NC(=O)c3cccc(S(C)(=O)=O)c3)sc2C)cc1 | 0.1015 | 0.0098 | 0.0499
O=C(NCc1ccco1)C1CCN(S(=O)(=O)c2ccc(Br)cc2)CC1 | -0.2359 | -0.1145 | -0.0814
Clc1ccc2[nH]c3c(NCCCN4CCOCC4)ncnc3c2c1 | -0.0516 | 0.0234 | -0.0328
Oc1c(CN2CCN(c3ccccc3F)CC2)cc(Br)c2cccnc12 | 0.0379 | -0.0397 | 0.0189
CCCCc1c(C)nc2c(OC)cccc2c1O | 0.0348 | -0.0392 | -0.0292
CCOC(=O)C1CCN(C(=O)CN2C(=O)c3ccccc3C2c2c[nH]c3ccccc23)CC1 (stereo unspecified) | -0.5143 | -1.0024 | -0.2514
CCCN(CCC)CCCNC(=O)c1cc2c(-c3ccc(OC)c(OC)c3)nn(C)c2s1 | -0.061 | -0.0057 | -0.0982
Cc1cc(N2CCN(C3CCCC3)CC2)n2c(nc3ccccc32)c1C#N | -0.0829 | -0.0263 | 0.1152
O=c1c2c([nH]c3ccccc13)CCCC2 | -0.326 | -0.0433 | -0.018
CCCCOc1ccc(C(=O)Nc2cc(C)on2)cc1 | -0.1988 | -0.0346 | -0.0653
CC1CCCCN1CCCNC(=O)c1ccc2c(c1)sc1nc(-c3ccc(F)cc3)cn12 (stereo unspecified) | -0.161 | 0.083 | 0.1056
CCc1ccc(Nc2cc(C)nc3nc(C)nn23)cc1 | -0.0737 | 0.0328 | -0.1477
Br.CCN(CC)S(=O)(=O)c1ccc(-c2csc(Nc3ccc(C)c(C)c3)n2)cc1 | -0.6715 | -0.1037 | 0.0785
Cc1c(C)n(CC(O)CNC2CCCCC2C)c2ccccc12 (stereo unspecified) | -0.2246 | -0.0794 | -0.0308
CCCCN(CCCC)S(=O)(=O)c1ccc(NC(=O)c2ccco2)cc1 | -0.9939 | -0.9715 | -0.9663
